Data reported in patent publication US20250179059A1 (The Regents of the University of California, priority 2021, published 2025).
Like-named read-outs stand apart in the source and are kept apart here.

How the values were obtained:
[1] = test system: human SKM-1 acute myeloid leukemia cells; assay: SKM-1 antiproliferation cell-based assay (ATPlite); settings: Homo sapiens
Outline: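 Log-phase cells in RPMI 1640/15% FBS were seeded at 34722 cells/mL and exposed for 4 days to nine-concentration DMSO serial dilutions in triplicate. Viability was read as ATP luminescence (ATPlite 1step), and IC50 values came from variable-slope non-linear regression.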

[2] = biological target: T1, human BRD4 bromodomain II (Homo sapiens, UniProt O60885); assay: Bromodomain binding assay (AlphaScreen), BRD4 BDII
T1 construct: human BRD4 bromodomain II [based on Genbank NM_058243, residues 349-460]; host or cells: E. coli
Outline: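 AlphaScreen competition: His6-BRD4 BDI (aa 44-170) or BDII (aa 349-460) vs biotin-H4(1-21) K5/K8/K12/K16Ac peptide; Ni-chelate acceptor/streptavidin donor beads. HEPES pH 7.5, NaCl, CHAPS, BSA, 1% DMSO; RT. 10-pt 3-fold titration, % peptide binding fitted → IC50.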

[3] = SKM-1, 96 h, SKM-1 antiproliferation assay, 4 days, Table C2
[4] = AlphaScreen assay, Table C2, read-out: BRD4 BDII IC50
[5] = SKM-1, SKM-1 antiproliferation assay
[6] = BRD4 BDII AlphaScreen assay, read-out: BRD4 BD2 IC50

GI50 [1, 3] [nM] | IC50 [2, 4] [nM] | GI50 [1, 5] [nM] | IC50 [2, 6] [nM] | SMILES
30 to 300 | 1 to 10 | – | – | CC(=O)NC1(C)CN(c2cc(-c3cc(F)cc(-c4ccc(-n5ccn(C)c5=O)c(Cl)c4)c3O)ccn2)C1 [Example 768, N-(1-(4-(3′-chloro-5-fluoro-2-hydroxy-4′-(3-methyl-2-oxo-2,3-dihydro-1H-imidazol-1-yl)-[1,1′-biphenyl]-3-yl)pyridin-2-yl)-3-methylazetidin-3-yl)acetamide]
– | – | 0.3 to 30 | 1 to 10 | Cc1cc(-c2ccc(-n3ccn(C)c3=O)c(Cl)c2)c(O)c(-c2ccc(F)c(N3CCN(C(C)(C)C)CC3)c2)n1 [Example 1000, 1-(4-(2-(3-(4-(tert-butyl)piperazin-1-yl)-4-fluorophenyl)-3-hydroxy-6-methylpyridin-4-yl)-2-chlorophenyl)-3-methyl-1H-imidazol-2(3H)-one]
– | – | 0.3 to 30 | 1 to 10 | Cc1ncc(-c2cc(F)cc(-c3ccc(-n4ccn(C)c4=O)c(Cl)c3)c2O)cc1N1CCN(C2CCOC2)CC1 (centres unmarked) [Example 890]
– | – | 0.3 to 30 | 1 to 10 | Cn1ccn(-c2ccc(-c3cc(F)cc(-c4cccc(N5CC6CNCC6C5)c4)c3O)cc2Cl)c1=O (centres unmarked) [Example 943, 1-(3-chloro-5′-fluoro-3″-(hexahydropyrrolo[3,4-c]pyrrol-2(1H)-yl)-2′-hydroxy-[1,1′:3′,1″-terphenyl]-4-yl)-3-methyl-1,3-dihydro-2H-imidazol-2-one]
– | – | 0.3 to 30 | 10 to 100 | Cc1ncc(-c2nccc(-c3ccc(-n4ccn(C)c4=O)c(Cl)c3)c2O)cc1N1CCN(C(C)(C)C)CC1 [Example 993, 1-(4-(5′-(4-(tert-Butyl)piperazin-1-yl)-3-hydroxy-6′-methyl-[2,3′-bipyridin]-4-yl)-2-chlorophenyl)-3-methyl-1H-imidazol-2(3H)-one]
– | – | 300 to 3000 | 1 to 10 | CC(=O)Nc1ccc(-c2cc(F)cc(-c3cccc(N4CCN(C(C)(C)C)CC4)c3)c2O)cc1Cl [Example 919, N-(3″-(4-(tert-butyl)piperazin-1-yl)-3-chloro-5′-fluoro-2′-hydroxy-[1,1′:3′,1″-terphenyl]-4-yl)acetamide]
– | – | 0.3 to 30 | 0.01 to 1 | COc1ncc(-c2cc(F)cc(-c3ccc(-n4ccn(C)c4=O)c(Cl)c3)c2O)cc1N1CC[C@@]2(CCN2C(C)C)C1 [Example 902]
0.3 to 30 | 0.01 to 1 | – | – | Cn1ccn(-c2ccc(-c3cc(F)cc(-c4cnc(C(F)F)c(N5CCN(C(C)(C)C)CC5)c4)c3O)cc2Cl)c1=O [Example 826, 1-(3′-(5-(4-(tert-butyl)piperazin-1-yl)-6-(difluoromethyl)pyridin-3-yl)-3-chloro-5′-fluoro-2′-hydroxy-[1,1′-biphenyl]-4-yl)-3-methyl-1H-imidazol-2(3H)-one]
– | – | 0.3 to 30 | 1 to 10 | CN1CCN(c2ccc(-c3cc(F)cc(-c4cccc(N5CCN(C(C)(C)C)CC5)c4)c3O)cc2Cl)C1=O [Example 918, 1-(3″-(4-(tert-butyl)piperazin-1-yl)-3-chloro-5′-fluoro-2′-hydroxy-[1,1′:3′,1″-terphenyl]-4-yl)-3-methylimidazolidin-2-one]

Second part, the compound before the results:

SMILES | GI50 [1, 3] [nM] | IC50 [2, 4] [nM] | GI50 [1, 5] [nM] | IC50 [2, 6] [nM]
Cn1ccn(-c2ccc(-c3cc(F)cc(-c4ccnc(N5CCCC(C)(N)C5)c4)c3O)cc2Cl)c1=O (centres unmarked) [Example 744, 1-(3′-(2-(3-amino-3-methylpiperidin-1-yl)pyridin-4-yl)-3-chloro-5′-fluoro-2′-hydroxy-[1,1′-biphenyl]-4-yl)-3-methyl-1H-imidazol-2(3H)-one] | 0.3 to 30 | 0.01 to 1 | – | –
Cn1ccn(-c2ccc(-c3cc(F)cc(-c4ccnc(N5CC[C@H](N6CCOCC6)C5)c4)c3O)cc2Cl)c1=O [Example 635, (S)-1-(3-chloro-5′-fluoro-2′-hydroxy-3′-(2-(3-morpholinopyrrolidin-1-yl)pyridin-4-yl)-[1,1′-biphenyl]-4-yl)-3-methyl-1H-imidazol-2(3H)-one] | 0.3 to 30 | 1 to 10 | – | –
CN[C@H]1CCN(c2cc(-c3cc(F)cc(-c4ccc(-n5ccn(C)c5=O)c(Cl)c4)c3O)cc3[nH]ncc23)C1 [Example 583] | 0.3 to 30 | 1 to 10 | – | –
Cn1ccn(-c2ccc(-c3cc(F)cc(-c4ccnc(N5CCCNCC5)c4)c3O)cc2Cl)c1=O [Example 623, 1-(3′-(2-(1,4-diazepan-1-yl)pyridin-4-yl)-3-chloro-5′-fluoro-2′-hydroxy-[1,1′-biphenyl]-4-yl)-3-methyl-1H-imidazol-2(3H)-one] | 0.3 to 30 | 0.01 to 1 | – | –
CN1CCN(c2ccc(-c3cc(F)cc(-c4ccc(CO)c(N5CCNCC5)c4)c3O)cc2Cl)C1=O [Example 358, 1-(3-chloro-5′-fluoro-2′-hydroxy-4″-(hydroxymethyl)-3″-(piperazin-1-yl)-[1,1′:3′,1″-terphenyl]-4-yl)-3-methylimidazolidin-2-one] | 30 to 300 | 1 to 10 | – | –
O=C1CCCCN1c1ccc(-c2cccc(-c3ccnc(N4CCNCC4)c3)c2O)cc1F [Example 263, 1-(3-fluoro-2′-hydroxy-3′-(2-(piperazin-1-yl)pyridin-4-yl)-[1,1′-biphenyl]-4-yl)piperidin-2-one] | 300 to 3000 | 10 to 100 | – | –
CC(C)N1CCN(c2cc(-c3cc(F)cc(-c4ccc(-n5ccn(C)c5=O)c(Cl)c4)c3O)ccn2)CC1 [Example 530, 1-(3-chloro-5′-fluoro-2′-hydroxy-3′-(2-(4-isopropylpiperazin-1-yl)pyridin-4-yl)-[1,1′-biphenyl]-4-yl)-3-methyl-1H-imidazol-2(3H)-one] | 0.3 to 30 | 0.01 to 1 | – | –
Cn1ccn(-c2ccc(-c3cc(F)cc(-c4cncc(N5CCC6(CCCN6)C5)c4)c3O)cc2Cl)c1=O (centres unmarked) [Example 692, 1-(3′-(5-(1,7-diazaspiro[4.4]nonan-7-yl)pyridin-3-yl)-3-chloro-5′-fluoro-2′-hydroxy-[1,1′-biphenyl]-4-yl)-3-methyl-1H-imidazol-2(3H)-one] | 0.3 to 30 | 0.01 to 1 | – | –
Cn1ccn(-c2ccc(-c3cc(F)cc(-c4cc(-c5ccn[nH]5)cc(N5CCNCC5)c4)c3O)cc2Cl)c1=O [Example 568] | 0.3 to 30 | 0.01 to 1 | – | –
O=C1NCCCN1c1ccc(-c2cc(F)cc(-c3ccnc(N4CCNCC4)c3)c2O)cc1Cl [Example 287, 1-(3-chloro-5′-fluoro-2′-hydroxy-3′-(2-(piperazin-1-yl)pyridin-4-yl)-[1,1′-biphenyl]-4-yl)tetrahydropyrimidin-2(1H)-one] | 300 to 3000 | > 100 | – | –
Cn1ccn(-c2ccc(-c3cc(F)cc(-c4ccnc(N5CC[C@@H](O)C5)c4)c3O)cc2Cl)c1=O [Example 627, (R)-1-(3-chloro-5′-fluoro-2′-hydroxy-3′-(2-(3-hydroxypyrrolidin-1-yl)pyridin-4-yl)-[1,1′-biphenyl]-4-yl)-3-methyl-1H-imidazol-2(3H)-one] | 30 to 300 | 0.01 to 1 | – | –
CCc1ncc(-c2cc(F)cc(-c3ccc(-n4ccn(C)c4=O)c(Cl)c3)c2O)cc1N1CCN(C(C)C)CC1 [Example 756, 1-(3-chloro-3′-(6-ethyl-5-(4-isopropylpiperazin-1-yl)pyridin-3-yl)-5′-fluoro-2′-hydroxy-[1,1′-biphenyl]-4-yl)-3-methyl-1H-imidazol-2(3H)-one] | 0.3 to 30 | 0.01 to 1 | – | –
CN1CCN(c2ccc(-c3cc(F)cc(-c4cnc(OC5CCC(O)CC5)c(N5CCNCC5)c4)c3O)cc2Cl)C1=O (centres unmarked) [Example 421, 1-(3-chloro-5′-fluoro-2′-hydroxy-3′-(6-((4-hydroxycyclohexyl)oxy)-5-(piperazin-1-yl)pyridin-3-yl)-[1,1′-biphenyl]-4-yl)-3-methylimidazolidin-2-one] | 30 to 300 | 0.01 to 1 | – | –
